Data from the CheMixHub drug solubility set.

Assay: xn = mol fraction of the nth substance listed, in the solute-free solvent

CC1CCC2C(C)C(OC(=O)CCC(=O)O)OC3OC4(C)CCC1C32OO4 (stereo not drawn) + CCO + O
solubility (g/100 g solution)
Settings	278.15 K	283.15 K	288.15 K	293.15 K	298.15 K	303.15 K	308.15 K	313.15 K	318.15 K
x2 = 0.04179	0.113	0.146	0.183	0.23	0.279	0.348	0.427	0.517	0.627
x2 = 0.08949	0.369	0.462	0.563	0.69	0.817	0.994	1.19	1.41	1.66
x2 = 0.1436	0.816	0.995	1.19	1.43	1.66	1.97	2.32	2.69	3.12
x2 = 0.2067	1.38	1.65	1.94	2.29	2.62	3.07	3.55	4.06	4.64
x2 = 0.2813	1.97	2.33	2.69	3.13	3.56	4.1	4.66	5.26	5.94
x2 = 0.3699	2.54	2.92	3.37	3.87	4.36	4.95	5.59	6.25	6.96
x2 = 0.4771	3.08	3.48	3.92	4.47	5.03	5.67	6.34	7.03	7.74
x2 = 0.6102	3.61	4.02	4.51	5.11	5.67	6.29	6.98	7.63	8.37
x2 = 0.7797	4.05	4.46	4.95	5.55	6.12	6.72	7.39	8.06	8.72

CCOC(=O)OC1=C(c2cc(C)ccc2C)C(=O)NC12CCC(OC)CC2 (stereo not drawn) + CC(C)=O + O
solubility (g/100 g solution)
Settings	278.15 K	283.15 K	288.15 K	293.15 K	298.15 K	303.15 K	308.15 K	313.15 K	318.15 K
x2 = 0.2	0.475	0.687	0.839	1.08	1.39	1.78	2.25	2.83	3.61
x2 = 0.4	3.7	4.54	5.58	6.92	8.55	10.5	12.8	15.7	19
x2 = 0.6	7.51	9.16	10.8	13	15.4	18.3	21.6	25.5	29.7
x2 = 0.8	9.34	10.6	12.6	14.8	17.3	20.3	23.7	27.4	31.4

Cc1nc2n(c(=O)c1CCN1CCC(c3noc4cc(F)ccc34)CC1)CCCC2 + CCO + O
solubility (g/100 g solution)
Settings	278.15 K	283.15 K	288.15 K	293.15 K	298.15 K	303.15 K	308.15 K	313.15 K
x2 = 0.1436	0.173	0.214	0.262	0.329	0.397	0.487	0.592	0.73
x2 = 0.2069	0.628	0.744	0.919	1.1	1.4	1.68	2.06	2.58
x2 = 0.2812	1.72	2.03	2.47	2.94	3.58	4.32	5.34	6.64
x2 = 0.3627	3.31	3.98	4.66	5.53	6.67	8.06	9.77	12
x2 = 0.4768	4.74	5.58	6.59	7.76	9.19	11	13.2	15.9
x2 = 0.6101	4.86	5.65	6.62	7.77	9.18	10.8	12.9	15.2
x2 = 0.779	3.01	3.56	4.18	4.97	5.91	7.06	8.5	10.1
